# From patent publication US8222242B2, “Nitric oxide releasing compounds” (The Regents of the University of California, priority 2008, dated 2012)
# Key:
# New Zealand white rabbit = test: Oral (nasogastric) NO-Cbi and rabbit blood pressure; format: in vivo
# Procedure: An anesthetized New Zealand white rabbit was given NO-Cbi via a nasogastric tube at 10 and 100 (0.32 and 3.2 mg/kg) (FIG. 10a) or 10 and 50 (0.32 and 1.6 mg/kg) (FIG. 10b) times the dose used intravenously. Blood pressure was monitored continuously by an intra-arterial catheter, and was recorded every 5 minutes. The blood pressure was allowed to stabilize for 10 minutes prior to administering NO-Cbi.
# rabbits = test: Rabbits with phenylephrine-induced hypertension; format: in vivo, rabbit
# Procedure: Phenylephrine was given by continuous intravenous infusion to an anesthetized rabbit at increasing rates from 5 to 20 μg/kg/min; the rabbit remained on the highest phenylephrine infusion rate until the end of the experiment (darker arrows with “A”-shaped arrowheads indicate start times of each increasing dose). At 49 minutes, an infusion of NO-Cbi was started at a rate of 3 μg/kg/min (2.9 nmol/kg/min), with the infusion rate doubled at 58 minutes (lighter arrows with triangular-shaped arrowheads indicate start times of infusions). Systolic and diastolic blood pressure recordings from an intra-arterial catheter are shown. Changes in total hemoglobin, oxyhemoglobin, and deoxyhemoglobin concentrations were measured by continuous wave near-infrared spectroscopy over the left thigh muscle. Phenylephrine caused a progressive decrease in total hemoglobin and oxyhemoglobin concentrations, which reversed within seconds of starting the NO-Cbi infusion.
# Decreased tissue oxygenation as occurred in the experiments shown in FIGS. 7 and 8 would clearly be an undesirable effect of treating hypertensive patients with NO-Cbi. However, lowering blood pressure of a hypertensive patient is very different from lowering blood pressure of a normotensive subject, and the experiments described in Example 15 rabbits with normal or low (due to anesthesia) blood pressure. To simulate a hypertensive state, the blood pressure of rabbits was raised using a continuous intravenous infusion of phenylephrine, a peripheral vasoconstrictor (FIG. 9). As the rabbit's blood pressure increased above normal, tissue perfusion and oxygenation decreased, as evidenced by a decrease in total hemoglobin and oxyhemoglobin concentrations in muscle.
# Thus, in an animal with drug-induced hypertension, NO-Cbi improved tissue perfusion and oxygenation as it lowered blood pressure.
compound,measurement,setting,value
"CC1=C2[N+]3=C(C=C4[N+]5=C(C(C)=C6[N]7C(C(CC(N)=O)C6(C)CCC(=O)NCC(C)O)C6(C)[N+](=C1C(CCC(N)=O)C6(C)CC(N)=O)[Co-3]753[N]=O)C(CCC(N)=O)C4(C)C)C(CCC(N)=O)C2(C)CC(N)=O (stereo not drawn) [NO-Cbi, nitrosyl cobinamide]",blood pressure on the higher dose,New Zealand white rabbit; 3.2 or 1.6 mg/kg via nasogastric tube,steeper decrease
same,time until blood pressure began to decrease,New Zealand white rabbit; low dose (0.32 mg/kg) via nasogastric tube,≤ 10 min
same,blood pressure after 100 or 180 minutes,New Zealand white rabbit; via nasogastric tube,remained lower than baseline
same,duration of effect after each dose,New Zealand white rabbit; via nasogastric tube,at least 40 minutes
same,blood pressure,"rabbits; NO-Cbi infusion 3 μg/kg/min during phenylephrine, within seconds",began to decrease
same,total tissue hemoglobin and oxyhemoglobin concentrations,rabbits; NO-Cbi infusion during phenylephrine,increased
